In brackets after ≈: the same amount, converted by molar mass.
Experiments:
[1] = system: TRCs of A2780, A549, MCF-7, MDA-MB-435s, A375; assay: Colony growth of TRCs of five human cancer cell lines (summary statements); type: cell-based
Method: (§1) Salmon fibrinogen and thrombin were purchased from Reagent Proteins (CA, USA). 3D fibrin gels were prepared as described previously[5],[6]. In brief, fibrinogen was diluted into 2 mg mL^−1 with T7 buffer (pH 7.4, 50 mM Tris, 150 mM NaCl). Cells were detached from 2D rigid dishes and cell density was adjusted to 10^4 cells per mL. Fibrinogen and cell solution mixture were made by mixing the same volume of fibrinogen solution and cell solution, resulting in 1 mg mL^−1 fibrinogen and 5000 cells per mL in the mixture fibrin gels. A volume of 50 μL cell/fibrinogen mixture was seeded into each well of 96-well plate and mixed well with pre-added 1 μL thrombin (100 U mL^−1). The cell culture plate was then incubated in 37 °C cell culture incubator for 10 min. Finally, 200 μL of DMEM medium containing 10% FBS and antibiotics was added.
Control B16-F1, A2780, A549, MCF-7, MDA-MB-435s, and A375 cells were cultured in 90-Pa fibrin gels to form round colonies and then treated with 0.1, 1, and 10 μM WYC-209, WYC-209A, and WYC-209B or 0.1% DMSO on day 3, which was washed out with pre-warmed PBS on day 4 with fresh medium, and then kept culturing till day 7 or day 9.

Water solubility = conditions: PBS (pH 7.4), pH 7.4, aqueous buffer, kinetic from dmso stock
CYP 2C9 = target: T1, CYP 2C9 (Homo sapiens, UniProt P11712); assay: Cytochromes enzyme inhibition assay, human liver microsomes; type: in vitro ADME; conditions: substrate diclofenac (10 µM)
T1 construct: from tissue; host or cells: human liver microsomes

HaCaT cells = assay: Non-cancerous human epidermal HaCaT cells, 2D rigid dishes and 3D soft fibrin gels; type: cell-based; conditions: for HaCaT cell numbers on 2D rigid plastic / HaCaT colony growth in 3D soft fibrin gel: 10 μM; for HaCaT colony growth in 3D soft fibrin gel: day 7; for Inhibitory effects towards non-cancerous HaCaT cells: 2D rigid dishes and 3D soft fibrin gels
Method: Supplementary Figure 21. WYC-209 has less inhibitory effects on non-cancerous human epidermal cell line HaCaT. (a) Non-cancerous human epidermal HaCaT cells were seeded into 3D soft fibrin gel and treated with 0.1, 1, or 10 μM of WYC-209, WYC-209A, or WYC-209B on day 0, and colony sizes were quantified on day 7.
Bright field images were representative images of colonies on day 7. Scale bars, 50 μm. (b) Quantitation of cell numbers per view field of HaCaT cells plated on 2D rigid plastic. Cell nucleus were stained with DAPI. None: medium only; DMSO: medium containing 0.1% DMSO. Mean ± s.e.m.; n= 5 samples; 3 separate experiments; * P<0.05, *** P<0.001 (Student’s t-test). Note that even at 10 μM concentration no […]
compounds have less inhibitory effects on these non-cancerous human epidermal […]
(§2) (1 picture or pasted object on this page, not shown here)

CYP 2D6 = target: T2, CYP 2D6 (Homo sapiens, UniProt P10635); assay: Cytochromes enzyme inhibition assay, human liver microsomes; type: in vitro ADME; conditions: substrate bufuralol (10 µM)
T2 construct: from tissue; host or cells: human liver microsomes

CYP 2C19 = target: T3, CYP 2C19 (Homo sapiens, UniProt P33261); assay: as above; type: in vitro ADME; conditions: substrate S-mephenytoin (35 µM)
T3 construct: from tissue; host or cells: human liver microsomes

CYP 1A2 = target: T4, CYP 1A2 (Homo sapiens, UniProt P05177); assay: as above; type: in vitro ADME; conditions: substrate phenacetin (30 µM)
T4 construct: from tissue; host or cells: human liver microsomes

CYP 3A4 = target: T5, CYP 3A4 (Homo sapiens, UniProt P08684); assay: as above; type: in vitro ADME
T5 construct: from tissue; host or cells: human liver microsomes

hERG channels = hERG channels (Homo sapiens, UniProt Q12809); assay: Functional hERG blocking assay, patch clamp in CHO hERG cell line
[2] = system: human melanoma MDA-MB-435s; assay: Colony growth of MDA-MB-435s TRCs in 90-Pa fibrin gels; type: cell-based
Method: as §1

[3] = system: B16-F1 melanoma cells / TRCs; assay: Apoptosis by Annexin-V and PI flow cytometry; type: cell-based, murine; conditions: 10 μM, 24 h after treatment
Method: For Annexin-V and PI staining to quantify cell apoptosis, treated TRCs were isolated from 3D fibrin gel by using 5 mg mL^−1 Dispase II (Sigma), cells were labeled with FITC-conjugated Annexin-V and PI according to the manufacturer’s instruction (Biolegend). Data were acquired on a BD Cantoll (BD biosciences) and analyzed with FlowJo software. For BrdU staining to quantify cell proliferation, cells were labeled with FITC-conjugated anti-BrdU antibody according to the manufacturer’s instruction (FITC BrdU Flow Kit, BD Biosciences) and then data were acquired on an Accuri C6 (BD Biosciences) and analyzed with BD Accuri C6 software.
Supplementary Figure 12. WYC-209 induces TRC apoptosis at 10 µM. (a)
Murine melanoma B16-F1 cells were seeded into 3D soft fibrin gels and then treated […]
The cells were collected after 24 hours and stained with FITC-conjugated Annexin-V and PI for apoptotic detection by flow cytometry. Apoptotic cells (%) = 100% - (Annexin-V-PI-) %. Mean ± s.e.m.; 3 separate experiments; *** P<0.001 (Student’s t-test). (b) Original images of flow cytometry of (a).
as §2
Supplementary Figure 38. WYC-209 induces tumor cell apoptosis. […]

[4] = system: human malignant melanoma A375; assay: Colony growth of A375 TRCs in 90-Pa fibrin gels; type: cell-based; conditions: Homo sapiens
Method: as §1

[5] = system: unselected B16-F1 melanoma cells; assay: Proliferation of unselected B16-F1 cells on 2D rigid dishes; type: cell-based, murine; conditions: 10 μM, 48 hours
Method: Supplementary Figure 9. WYC-209 detaches adherent melanoma cells on rigid plastic. Murine melanoma cell line B16-F1 were cultured on rigid plastics and treated with 10 μM WYC-209 and observed for 48 hours. Cell nucleus were stained with DAPI. DMSO: medium containing 0.1% DMSO. (a) Representative images of cells stained with DAPI 48 hrs after treatment. Scale bars, 500 μm. (b) Quantitation of cell numbers per view field of B16-F1 treated with WYC-209. Mean ± s.e.m.; n=5 samples; 3 independent experiments; *** P<0.001 (Student’s t-test).
as §2

T5 sequence (P08684 whole entry): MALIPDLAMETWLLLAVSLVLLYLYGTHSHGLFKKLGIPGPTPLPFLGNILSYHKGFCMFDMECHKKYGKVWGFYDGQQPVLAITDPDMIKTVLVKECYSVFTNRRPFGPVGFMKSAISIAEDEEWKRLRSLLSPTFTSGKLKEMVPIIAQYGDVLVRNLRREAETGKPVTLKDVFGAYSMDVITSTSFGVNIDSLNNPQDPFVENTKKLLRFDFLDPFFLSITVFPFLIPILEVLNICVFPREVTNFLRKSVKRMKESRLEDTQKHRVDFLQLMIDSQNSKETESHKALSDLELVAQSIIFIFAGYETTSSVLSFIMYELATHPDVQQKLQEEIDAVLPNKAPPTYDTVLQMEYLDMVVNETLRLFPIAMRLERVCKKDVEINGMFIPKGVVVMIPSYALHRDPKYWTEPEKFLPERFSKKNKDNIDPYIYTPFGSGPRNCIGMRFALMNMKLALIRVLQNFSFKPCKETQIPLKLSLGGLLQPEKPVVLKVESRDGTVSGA
T4 sequence (P05177 whole entry): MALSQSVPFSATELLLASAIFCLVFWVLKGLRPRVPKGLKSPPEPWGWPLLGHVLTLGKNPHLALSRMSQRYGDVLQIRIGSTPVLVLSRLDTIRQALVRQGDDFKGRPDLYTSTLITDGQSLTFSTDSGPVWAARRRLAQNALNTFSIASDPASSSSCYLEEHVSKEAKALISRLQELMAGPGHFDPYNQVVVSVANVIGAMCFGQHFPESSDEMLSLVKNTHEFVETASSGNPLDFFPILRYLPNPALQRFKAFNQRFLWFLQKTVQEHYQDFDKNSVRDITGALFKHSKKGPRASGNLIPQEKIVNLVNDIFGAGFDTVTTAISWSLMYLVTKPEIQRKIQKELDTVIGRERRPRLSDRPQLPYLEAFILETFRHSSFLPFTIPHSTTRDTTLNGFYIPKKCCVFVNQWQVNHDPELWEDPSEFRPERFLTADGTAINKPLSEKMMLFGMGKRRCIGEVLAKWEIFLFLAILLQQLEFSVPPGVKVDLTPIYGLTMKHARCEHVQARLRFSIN
Sequence of hERG channels (Q12809 whole entry): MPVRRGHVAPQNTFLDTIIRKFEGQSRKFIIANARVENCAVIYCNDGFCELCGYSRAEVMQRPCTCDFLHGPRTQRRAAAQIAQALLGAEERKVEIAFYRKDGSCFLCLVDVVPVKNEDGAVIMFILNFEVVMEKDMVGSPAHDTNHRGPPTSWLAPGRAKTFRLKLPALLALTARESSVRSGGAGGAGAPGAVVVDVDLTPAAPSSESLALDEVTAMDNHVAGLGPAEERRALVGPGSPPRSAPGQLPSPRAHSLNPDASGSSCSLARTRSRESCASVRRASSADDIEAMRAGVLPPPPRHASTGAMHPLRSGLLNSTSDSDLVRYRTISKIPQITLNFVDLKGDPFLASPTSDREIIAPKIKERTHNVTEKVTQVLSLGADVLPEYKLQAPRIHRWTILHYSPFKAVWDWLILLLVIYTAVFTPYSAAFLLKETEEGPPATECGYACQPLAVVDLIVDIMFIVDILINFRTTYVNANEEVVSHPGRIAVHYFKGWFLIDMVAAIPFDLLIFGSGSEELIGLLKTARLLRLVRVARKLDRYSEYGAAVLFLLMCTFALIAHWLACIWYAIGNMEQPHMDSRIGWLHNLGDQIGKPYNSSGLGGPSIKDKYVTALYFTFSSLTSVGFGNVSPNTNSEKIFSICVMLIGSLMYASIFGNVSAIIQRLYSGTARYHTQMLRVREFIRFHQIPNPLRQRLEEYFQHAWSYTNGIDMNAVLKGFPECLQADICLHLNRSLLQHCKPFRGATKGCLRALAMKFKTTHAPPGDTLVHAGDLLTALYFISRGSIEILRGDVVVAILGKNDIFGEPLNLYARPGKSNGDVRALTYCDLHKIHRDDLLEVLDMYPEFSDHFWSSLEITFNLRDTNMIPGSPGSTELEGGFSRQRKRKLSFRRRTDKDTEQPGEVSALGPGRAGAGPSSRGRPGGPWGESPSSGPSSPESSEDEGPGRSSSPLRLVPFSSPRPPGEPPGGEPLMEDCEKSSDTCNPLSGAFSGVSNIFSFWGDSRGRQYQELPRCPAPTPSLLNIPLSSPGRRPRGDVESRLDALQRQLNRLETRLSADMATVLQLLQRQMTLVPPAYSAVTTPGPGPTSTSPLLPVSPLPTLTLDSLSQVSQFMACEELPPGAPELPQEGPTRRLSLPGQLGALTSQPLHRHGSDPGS
T2 sequence (P10635 whole entry): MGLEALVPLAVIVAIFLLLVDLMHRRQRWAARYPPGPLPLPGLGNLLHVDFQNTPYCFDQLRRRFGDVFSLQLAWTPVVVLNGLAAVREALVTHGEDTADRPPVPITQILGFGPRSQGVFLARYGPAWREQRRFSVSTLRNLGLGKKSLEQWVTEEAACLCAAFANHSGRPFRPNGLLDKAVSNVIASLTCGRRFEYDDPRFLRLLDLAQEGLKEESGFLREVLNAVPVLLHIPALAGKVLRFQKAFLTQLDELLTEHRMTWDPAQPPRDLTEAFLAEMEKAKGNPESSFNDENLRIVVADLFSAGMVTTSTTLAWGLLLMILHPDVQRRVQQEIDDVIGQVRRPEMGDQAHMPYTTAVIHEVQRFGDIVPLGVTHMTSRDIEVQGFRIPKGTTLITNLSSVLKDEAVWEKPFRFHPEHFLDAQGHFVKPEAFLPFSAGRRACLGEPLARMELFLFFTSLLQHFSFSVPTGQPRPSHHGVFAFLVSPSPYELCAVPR
T1 sequence (P11712 whole entry): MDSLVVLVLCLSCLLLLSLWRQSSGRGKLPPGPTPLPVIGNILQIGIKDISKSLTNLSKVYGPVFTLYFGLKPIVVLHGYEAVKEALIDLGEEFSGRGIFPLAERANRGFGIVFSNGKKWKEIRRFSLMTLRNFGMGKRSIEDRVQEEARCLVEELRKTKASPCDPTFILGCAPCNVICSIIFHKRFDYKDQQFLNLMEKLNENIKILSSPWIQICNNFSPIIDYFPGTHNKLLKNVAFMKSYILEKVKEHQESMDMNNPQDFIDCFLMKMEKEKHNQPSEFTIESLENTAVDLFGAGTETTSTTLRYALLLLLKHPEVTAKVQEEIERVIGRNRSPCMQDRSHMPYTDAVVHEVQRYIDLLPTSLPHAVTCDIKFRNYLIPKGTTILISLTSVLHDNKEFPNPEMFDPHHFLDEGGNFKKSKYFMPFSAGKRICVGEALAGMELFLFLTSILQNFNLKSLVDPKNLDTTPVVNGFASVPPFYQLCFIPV
T3 sequence (P33261 whole entry): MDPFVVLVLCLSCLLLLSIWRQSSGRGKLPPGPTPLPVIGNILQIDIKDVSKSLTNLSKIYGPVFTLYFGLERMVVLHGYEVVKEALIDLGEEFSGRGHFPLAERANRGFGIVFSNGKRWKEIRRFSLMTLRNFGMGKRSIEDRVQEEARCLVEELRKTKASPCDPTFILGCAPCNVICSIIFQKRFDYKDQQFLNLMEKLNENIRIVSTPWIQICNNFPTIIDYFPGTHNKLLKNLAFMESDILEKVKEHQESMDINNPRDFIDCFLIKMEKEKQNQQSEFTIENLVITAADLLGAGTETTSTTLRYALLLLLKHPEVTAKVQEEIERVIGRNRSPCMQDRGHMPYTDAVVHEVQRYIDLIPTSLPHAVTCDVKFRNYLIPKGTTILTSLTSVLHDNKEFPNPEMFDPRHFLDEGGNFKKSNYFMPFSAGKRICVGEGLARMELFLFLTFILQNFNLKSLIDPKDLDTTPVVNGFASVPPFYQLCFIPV

Row | SMILES | Colony growth after washout and re-plating ([1]; pretreated at 10 μM) | Colony growth after washout and re-plating ([1]; pretreated at 0.1 or 1 μM) | solubility at 1 h (Water solubility) | IC50 (CYP 2C9) | HaCaT cell numbers on 2D rigid plastic (HaCaT cells) | HaCaT colony growth in 3D soft fibrin gel (HaCaT cells) | Inhibitory effects towards non-cancerous HaCaT cells (HaCaT cells) | IC50 (CYP 2D6) | IC50 (CYP 2C19) | IC50 (CYP 1A2) | IC50 (CYP 3A4; first 3A4 column) | IC50 (CYP 3A4; second 3A4 column) | IC50 (hERG channels) | further results
1 | CCOC(=O)c1cnc(C#Cc2ccc3c(c2)C(C)(C)CC[S@+]3[O-])nc1 [WYC-209A] | completely inhibited | partially inhibited | 89.4 µM (≈ 32.9 µg/mL) | > 10 µM | no reduction in cell numbers | still some colony growth | much less inhibitory effects | > 10 µM | > 10 µM | > 10 µM | > 10 µM | > 10 µM | > 30 µM | 
2 | CCOC(=O)c1cnc(C#Cc2ccc3c(c2)C(C)(C)CC[S@@+]3[O-])nc1 [WYC-209B] | completely inhibited | partially inhibited | 88.1 µM (≈ 32.5 µg/mL) | > 10 µM | no reduction in cell numbers | still some colony growth | much less inhibitory effects | > 10 µM | > 10 µM | > 10 µM | > 10 µM | > 10 µM | > 30 µM | 
3 | CCOC(=O)c1cnc(C#Cc2ccc3c(c2)C(C)(C)CC[S+]3[O-])nc1 (stereo not shown) [WYC-209] | completely inhibited | partially inhibited |  |  | no reduction in cell numbers | still some colony growth | much less inhibitory effects |  |  |  |  |  |  | IC50 ([1]; Homo sapiens, 0 h, treated on day 0, read-out: IC50 (range over five human TRC types)): 0.1 to 0.52 µM; inhibition at 10 µM ([1]; Homo sapiens, 10 μM, read-out: Growth inhibition of all human TRCs): 100%; TRC growth after drug washout ([1]; treated day 3, washed out day 4, 5 days after washout): failed to resume growth; IC50 ([2]; 0 h, treated on day 0): 0.52 µM; inhibition at 10 µM ([2]; 10 μM): 100%; Apoptosis of un-selected melanoma cells or melanoma TRCs [3]: ~ 95%; IC50 ([4]; A-375, 0 h, A375, treated on day 0): 0.38 µM; inhibition at 10 µM ([4]; A-375, A375, 10 μM): 100%; Proliferation of unselected B16-F1 cells on 2D rigid dishes [5]: completely inhibited
